From US9102688B2, “Sulfonaminoquinoline hepcidin antagonists” (Vifor (International) AG, priority 2011, dated 2015)

Molecular target: T1, human ferroportin (Homo sapiens, UniProt Q9NP59)
T1 construct: expressed in transfected cells
T1 sequence (Q9NP59 1-571): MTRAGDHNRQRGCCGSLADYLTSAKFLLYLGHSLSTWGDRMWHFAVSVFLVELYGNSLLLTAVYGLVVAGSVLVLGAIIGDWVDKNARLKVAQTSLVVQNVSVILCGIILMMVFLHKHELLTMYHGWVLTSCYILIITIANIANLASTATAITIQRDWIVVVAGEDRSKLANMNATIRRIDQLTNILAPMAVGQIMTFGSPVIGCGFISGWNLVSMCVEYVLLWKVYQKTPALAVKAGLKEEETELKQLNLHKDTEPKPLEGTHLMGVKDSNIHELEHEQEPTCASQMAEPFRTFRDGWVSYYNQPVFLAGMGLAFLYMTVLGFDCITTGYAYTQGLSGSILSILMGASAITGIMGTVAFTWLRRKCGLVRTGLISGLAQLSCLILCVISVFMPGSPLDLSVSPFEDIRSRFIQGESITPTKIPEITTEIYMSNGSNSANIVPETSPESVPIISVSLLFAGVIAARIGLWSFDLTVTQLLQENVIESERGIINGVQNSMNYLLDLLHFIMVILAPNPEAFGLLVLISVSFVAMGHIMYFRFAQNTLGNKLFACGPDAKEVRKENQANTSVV
Assay: ferroportin internalization assay (inhibition of hepcidin-induced internalization of Fpn)
Type: cell-based
Conditions: MDCK-FPN-HaloTag cells, 100 nM hepcidin, overnight incubation; concentration range from 0.04 to 40 μM
Experimental: The hepcidin-antagonistic action of the sulfonaminoquinoline compounds of the present invention was determined by means of the “ferroportin internalization assay” described in the following.
Organic compounds of low molecular weight which counteract the biological actions of hepcidin on its receptor, the iron exporter ferroportin (Fpn), were identified on the basis of their ability to inhibit hepcidin-induced internalization of Fpn in living cells. For this purpose, a stable cell line (Madin-Darby canine kidney, MDCK) was produced which constitutively expresses human ferroportin fused recombinantly at its C terminus with a fluorescent reporter protein (HaloTag®, Promega Corp.). The internalization of Fpn was monitored by labelling these cells with fluorescent ligands (HaloTag®-TMR, tetramethylrhodamine) which join covalently on to the HaloTag reporter gene fused with the Fpn. […] Optimized image analysis algorithms were used to ascertain the cell surface and to quantify the corresponding membrane fluorescence associated with the Fpn-HaloTag fusion protein. This assay allows a quantitative image-based analysis in order to quickly evaluate compounds which can block hepcidin-induced internalization of Fpn. This assay is a direct in vitro pendant of the in vivo action mechanism proposed for medicament candidates and is therefore suitable as an initial assay with a high throughput for identifying compounds which counteract the action of hepcidin on its receptor ferroportin.
• 7,500 cells per well (MDCK-FPN-HaloTag) were transinoculated in 50 μl of DMEM medium (Dulbeccos Modified Eagle Medium with 10% foetal bovine serum (FBS), which contained 1% penicillin, 1% streptomycin and 450 μg/ml of G-418) in microtitre plates with 384 wells (384 Cell carrier plates, Perkin Elmer, cat. no. 6007430), followed by incubation overnight at 37° C./5% CO2. • The volume of the medium was reduced to 10 μl, and 10 μl of 5 μM HaloTag-TMR ligands (Promega, cat. no. G 8251) were added in DMEM medium in order to stain the Fpn-HaloTag fusion protein. • 15 min incubation at 37° C./5% CO2 • The HaloTag-TMR ligand was removed and the cells were washed with fresh DMEM medium and the volume was reduced to 20 μl of DMEM medium. • 3 μl per well of a solution of the test compound (dissolved DMSO) were added ([…]). • 7 μl of […] hepcidin (Peptides International, cat. no. PLP-4392-s, 100 μM stock solution diluted in water in DMEM medium) were added per well up to a final hepcidin concentration of 100 nM. • The cells were incubated overnight at 37° C./5% CO2. • The cells were fixed by adding paraformaldehyde (PFA, Electron Microscopy Sciences, cat. no. 15710-S) directly to the cells up to a final concentration of 4%, followed by incubation at room temperature for 15-20 minutes. • The PFA solution was removed and the cells were washed with PBS (phosphate-buffered saline solution), in each case 30 μl remaining in the plate. • 20 μl of Draq5 (Biostatus, cat. no. DR 51000) were added up to a final concentration of 2.5 μM in order to stain the cell nuclei, and the plates were sealed with a foil plate seal. • The plates were analysed with the Opera Plate Imager (Opera Confocal Plate Imager, Perkin Elmer) with 7 images per well; 440 ms exposure time per image, […] focal point height.

| SMILES | IC50 |
| --- | --- |
| CC(C)C(=O)Nc1cc(C(F)(F)F)ccc1S(=O)(=O)Nc1cccc2cccnc12 [Example 61, N-[2-(Quinolin-8-ylsulfamoyl)-5-trifluoromethyl-phenyl]-isobutyramide] | 10 µM |
| O=S(=O)(Nc1cccc2cccnc12)c1cccc(Cl)c1F [Example 62, 3-Chloro-2-fluoro-N-quinolin-8-yl-benzenesulfonamide] | 1.71 µM |
| O=S(=O)(Nc1cccc2cccnc12)c1c(F)cccc1F [Example 64, 2,6-Difluoro-N-quinolin-8-yl-benzenesulfonamide] | 1.14 µM |
| COc1cc(NS(=O)(=O)c2ccc(C(F)(F)F)cc2N)c2ncccc2c1 [Example 65, 2-Amino-N-(6-methoxy-quinolin-8-yl)-4-trifluoromethyl-benzenesulfonamide] | 1 µM |
| O=S(=O)(Nc1cccc2cccnc12)c1cccc(Cl)c1Cl [Example 67, 2,3-Dichloro-N-quinolin-8-yl-benzenesulfonamide] | 7.09 µM |
| Cc1c(Cl)cccc1S(=O)(=O)Nc1cccc2cccnc12 [Example 68, 3-Chloro-2-methyl-N-quinolin-8-yl-benzenesulfonamide] | 4 µM |
| O=S(=O)(Nc1cccc2cccnc12)Oc1ccccc1 [Example 70, Quinolin-8-yl-sulfamic acid phenyl ester] | 3.25 µM |
| Cc1cnc2c(NS(=O)(=O)c3ccc(Cl)cc3F)cccc2c1 [Example 71, 4-Chloro-2-fluoro-N-(3-methyl-quinolin-8-yl)-benzenesulfonamide] | 1.3 µM |
| Cc1cnc2c(NS(=O)(=O)c3cccnc3)cccc2c1 [Example 72, Pyridine-3-sulfonic acid (3-methyl-quinolin-8-yl)-amide] | 1.39 µM |
| Cc1cnc2c(NS(=O)(=O)c3ccc(C(F)(F)F)cc3N)cccc2c1 [Example 73, 2-Amino-N-(3-methyl-quinolin-8-yl)-4-trifluoromethyl-benzenesulfonamide] | 3 µM |
| O=S1(=O)Nc2c(ccc3cccnc23)-c2cc(F)ccc21 [Example 74, 9-Fluoro-5H-6-thia-4,5-diaza-chrysene 6,6-dioxide] | 1.56 µM |
| O=S(=O)(Nc1cc(F)cc2cccnc12)c1ccccc1 [Example 75, N-(6-Fluoro-quinolin-8-yl)-benzenesulfonamide] | 0.78 µM |
| Cc1cc(NS(=O)(=O)c2ccccc2)c2ncccc2c1 [Example 77, N-(6-Methyl-quinolin-8-yl)-benzenesulfonamide] | 2.18 µM |
| O=S1(=O)Nc2c(ccc3cccnc23)-c2cc(C(F)(F)F)ccc21 [Example 78, 9-Trifluoromethyl-5H-6-thia-4,5-diaza-chrysene 6,6-dioxide] | 0.13 µM |
| Cc1ccc(S(=O)(=O)Nc2ccc(Cl)c3cccnc23)c(N)c1 [Example 79, 2-Amino-N-(5-chloro-quinolin-8-yl)-4-methyl-benzenesulfonamide] | 1.22 µM |
| COc1cc(NS(=O)(=O)c2ccc(C)cc2N)c2ncccc2c1 [Example 80, 2-Amino-N-(6-methoxy-quinolin-8-yl)-4-methyl-benzenesulfonamide] | 0.585 µM |
| O=S(=O)(Nc1cc(F)c(Cl)c2cccnc12)c1ccccc1 [Example 82, N-(5-Chloro-6-fluoro-quinolin-8-yl)-benzenesulfonamide] | 1.5 µM |
| Cc1c(F)cccc1S(=O)(=O)Nc1cccc2cccnc12 [Example 83, 3-Fluoro-2-methyl-N-quinolin-8-yl-benzenesulfonamide] | 1.5 µM |
| O=S(=O)(Nc1cccc2cccnc12)c1ccccn1 [Example 85, Pyridine-2-sulfonic acid quinolin-8-ylamide] | 1.89 µM |

| SMILES | IC50 |
| --- | --- |
| O=S(=O)(Nc1cccc2cccnc12)c1cnc2ccccc2c1 [Example 88, Quinoline-3-sulfonic acid quinolin-8-ylamide] | 2.06 µM |
| O=S(=O)(Nc1cccc2cccnc12)c1ccc(C(F)(F)F)nc1 [Example 89, 6-Trifluoromethyl-pyridine-3-sulfonic acid quinolin-8-ylamide] | 3.69 µM |
| Cc1ccc(NS(=O)(=O)c2ccccc2)c2ncccc12 [Example 90, N-(5-Methyl-quinolin-8-yl)-benzenesulfonamide] | 1.1 µM |
| O=S(=O)(Nc1ccc(C(F)(F)F)c2cccnc12)c1ccccc1 [Example 91, N-(5-Trifluoromethyl-quinolin-8-yl)-benzenesulfonamide] | 1.05 µM |
| O=S(=O)(Nc1cc(OC(F)(F)F)cc2cccnc12)c1ccccc1 [Example 92, N-(6-Trifluoromethoxy-quinolin-8-yl)-benzenesulfonamide] | 9 µM |
| O=S(=O)(Nc1cc(F)cc2cccnc12)c1c(F)cccc1F [Example 94, 2,6-Difluoro-N-(6-fluoro-quinolin-8-yl)-benzenesulfonamide] | 1 µM |
| O=S(=O)(Nc1cc(F)cc2cccnc12)c1ccc(Cl)cc1F [Example 95, 4-Chloro-2-fluoro-N-(6-fluoro-quinolin-8-yl)-benzenesulfonamide] | 0.69 µM |
| O=S(=O)(Nc1cc(F)cc2cccnc12)c1cccnc1 [Example 96, Pyridine-3-sulfonic acid (6-fluoro-quinolin-8-yl)-amide] | 5.87 µM |
| O=S(=O)(Nc1cc(F)c(F)c2cccnc12)c1ccccc1 [Example 97, N-(5,6-Difluoro-quinolin-8-yl)-benzenesulfonamide] | 8 µM |
| O=S(=O)(Nc1ccc(F)c2cccnc12)c1ccccc1 [Example 98, N-(5-Fluoro-quinolin-8-yl)-benzenesulfonamide] | 0.988 µM |
| Cc1cc2c(cc1C)S(=O)(=O)Nc1c-2ccc2cccnc12 [Example 104, 8,9-Dimethyl-5H-6-thia-4,5-diaza-chrysene 6,6-dioxide] | 4.02 µM |
| COc1ccc2c(c1)-c1ccc3cccnc3c1NS2(=O)=O [Example 105, 9-Methoxy-5H-6-thia-4,5-diaza-chrysene 6,6-dioxide] | 1.58 µM |
| Cc1cc2c(c3ncccc13)NS(=O)(=O)c1ccccc1-2 [Example 107, 12-Methyl-5H-6-thia-4,5-diaza-chrysene 6,6-dioxide] | 0.599 µM |
| COc1cc2c(c3ncccc13)NS(=O)(=O)c1ccccc1-2 [Example 108, 12-Methoxy-5H-6-thia-4,5-diaza-chrysene 6,6-dioxide] | 0.99 µM |
| COc1ccnc2c3c(ccc12)-c1cc(C(F)(F)F)ccc1S(=O)(=O)N3 [Example 109, 1-Methoxy-9-trifluoromethyl-5H-6-thia-4,5-diaza-chrysene 6,6-dioxide] | 0.979 µM |
| O=S1(=O)Nc2c(ccc3cccnc23)CN1c1ccccc1 [Example 113, 2-Phenyl-1,4-dihydro-2H-3-thia-2,4,5-triaza-phenanthrene 3,3-dioxide] | 0.46 µM |
| O=S1(=O)NCc2ccc3cccnc3c2N1 [Example 114, 1,4-Dihydro-2H-3-thia-2,4,5-triaza-phenanthrene 3,3-dioxide] | 39.5 µM |
| CN1C(c2ccccc2)c2ccc3cccnc3c2NS1(=O)=O (centres unmarked) [Example 115, 2-Methyl-1-phenyl-1,4-dihydro-2H-3-thia-2,4,5-triaza-phenanthrene 3,3-dioxide] | 0.87 µM |
| N#Cc1ccc(S(=O)(=O)Nc2cccc3cccnc23)cn1 [Example 116, 6-Cyano-pyridine-3-sulfonic acid quinolin-8-ylamide] | 4.26 µM |
